Test results reported in ChEMBL document CHEMBL3988442, “University of Dundee, Small-Polar-MMV Screening Library” (2021).

What follows are compounds tested against T1, Ubiquitin-activating enzyme e1, putative (Leishmania donovani (strain BPK282A1), UniProt E9BSI1) (assay: Leishmania donovani Ubiquitin Activating Enzyme (LdE1)).
T1 sequence (E9BSI1 whole entry): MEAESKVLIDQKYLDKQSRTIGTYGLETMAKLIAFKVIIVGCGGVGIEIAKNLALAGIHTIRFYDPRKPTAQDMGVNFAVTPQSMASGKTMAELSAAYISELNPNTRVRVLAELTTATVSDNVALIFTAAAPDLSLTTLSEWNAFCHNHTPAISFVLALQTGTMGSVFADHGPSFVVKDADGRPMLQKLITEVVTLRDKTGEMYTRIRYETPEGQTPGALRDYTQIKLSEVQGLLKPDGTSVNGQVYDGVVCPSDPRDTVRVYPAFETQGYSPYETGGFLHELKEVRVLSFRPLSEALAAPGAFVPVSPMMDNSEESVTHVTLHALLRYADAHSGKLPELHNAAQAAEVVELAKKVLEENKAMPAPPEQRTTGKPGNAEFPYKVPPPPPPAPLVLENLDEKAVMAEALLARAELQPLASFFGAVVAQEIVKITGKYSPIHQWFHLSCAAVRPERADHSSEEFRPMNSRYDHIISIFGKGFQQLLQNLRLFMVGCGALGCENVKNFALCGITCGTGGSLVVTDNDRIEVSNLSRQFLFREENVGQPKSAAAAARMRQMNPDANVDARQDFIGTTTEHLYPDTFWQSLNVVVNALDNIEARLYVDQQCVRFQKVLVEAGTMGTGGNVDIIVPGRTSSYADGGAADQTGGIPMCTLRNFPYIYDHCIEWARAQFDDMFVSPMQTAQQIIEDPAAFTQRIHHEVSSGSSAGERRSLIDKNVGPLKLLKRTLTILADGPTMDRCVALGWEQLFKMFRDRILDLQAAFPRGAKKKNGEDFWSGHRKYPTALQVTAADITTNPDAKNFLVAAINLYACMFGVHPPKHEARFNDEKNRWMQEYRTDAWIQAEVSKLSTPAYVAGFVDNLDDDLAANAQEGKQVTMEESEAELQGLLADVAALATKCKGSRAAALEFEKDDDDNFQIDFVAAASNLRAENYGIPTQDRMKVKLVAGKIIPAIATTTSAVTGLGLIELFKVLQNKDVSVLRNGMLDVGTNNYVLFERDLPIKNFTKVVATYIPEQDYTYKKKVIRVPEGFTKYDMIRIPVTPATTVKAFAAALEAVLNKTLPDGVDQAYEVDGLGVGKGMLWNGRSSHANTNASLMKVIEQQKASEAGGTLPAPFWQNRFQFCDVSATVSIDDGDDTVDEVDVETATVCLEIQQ
Format: functional

| Structure (SMILES) | IC50 [µM] |
| --- | --- |
| CNS(=O)(=O)Cc1ccc(CNC(=O)Nc2cccnc2)cc1 | > 100 |
| CC[C@H]1N(C)CCC[C@]12CCC(=O)N2Cc1ccncc1 | > 100 |
| CC(O)CN1CCN(C(=O)c2ccc(N3CCCC3)nn2)CC1 (stereo not given) | > 100 |
| O=C(CCNC(=O)C1CCCC1)NCc1cccnc1-n1cncn1 | > 100 |
| CC(C)N1CCC(Cc2cc(-c3cccc(C(=O)O)c3)ncn2)C1 (stereo not given) | > 100 |
| CC(O)CN1CCN(C(=O)c2ccc(N(C)C)nc2)CC1 (stereo not given) | > 100 |
| COc1ccc(OC)c(CNCc2ccnc(N3CCCCC3)c2)c1 | > 100 |
| CN(C)c1ccc(C(=O)N2CCN(CC(O)C(C)(C)C)CC2)nn1 (stereo not given) | > 100 |
| Cc1cnn(CC2CCCCN2Cc2ncc(C(C)(C)C)o2)c1 (stereo not given) | > 100 |
| CC(NC(=O)NCCNc1ccccn1)c1cccs1 (stereo not given) | > 100 |
| COc1ccc(CNCc2ccnc(N3CCCC3)c2)c(OC)c1 | > 100 |
| Cc1nc(C)n(CC2CCCN2Cc2ncc(C(C)(C)C)o2)n1 (stereo not given) | > 100 |
| O=C(CC1CCCO1)NCc1ccccc1Cn1cncn1 (stereo not given) | > 100 |
| CC(OCC1CC1)C(=O)N1CCCN(Cc2nccn2C)CC1 (stereo not given) | > 100 |
| Cc1nc(C)n(CC2CCCCN2Cc2ncc(C(C)(C)C)o2)n1 (stereo not given) | > 100 |
| COCCC(=O)N1C[C@@H]2COC[C@]2(COCc2cccnc2)C1 | > 100 |
| O=C(CCNC(=O)C1CCCC1)NCc1ccccc1Cn1cncn1 | > 100 |
| Cn1cc(C(=O)N2C[C@@H]3COC[C@]3(COCc3cccnc3)C2)cn1 | > 100 |
| Cc1nc(C)n(CC2CCCCN2Cc2cnc(C)s2)n1 (stereo not given) | > 100 |
| Cc1cnn(CC(C)NCc2nc(-c3cccs3)no2)c1 (stereo not given) | > 100 |
| CC(Cn1cccn1)NCCCc1nc(-c2cccs2)no1 (stereo not given) | > 100 |
| Cc1cc(C)n(CC2CCCN2Cc2ncc(C(C)(C)C)o2)n1 (stereo not given) | > 100 |

| Structure (SMILES) | IC50 [µM] |
| --- | --- |
| CC[C@H]1N(CC2CCC2)CCC[C@]12CCC(=O)N2Cc1ccncc1 | > 100 |
| CC(C)N1CCC(Cc2cc(-c3ccccc3C(=O)O)ncn2)CC1 | > 100 |
| CNS(=O)(=O)c1ccc(CNC(=O)Nc2cn[nH]c2)cc1 | > 100 |
| Cn1ccnc1CN1CCCN(C(=O)CC(C2CC2)C2CC2)CC1 | > 100 |
| CC(C)N1CCC(Cc2cncc(-c3cccc(C(=O)O)c3)n2)CC1 | > 100 |
| O=C(NCc1ccccc1Cn1cncn1)C1CCCCC1 | > 100 |
| O=C(NCc1ccccc1Cn1cncn1)C1CCCC1 | > 100 |
| COCc1nc2cc(NCc3csc(C)n3)ccc2o1 | > 100 |
| CCn1nc2c(cc1=O)CN(Cc1nnc(C3CC3)o1)CC2 | > 100 |
| CCc1nc2n(n1)CC(NCc1nnc(C(C)C)o1)CC2 (stereo not given) | > 100 |
| COCc1nc2cc(NCc3ncc[nH]3)ccc2o1 | > 100 |
| O=C(NCc1ccccc1Cn1cncn1)C1CCC1 | > 100 |
| CC(C)C(NC(=O)NCCNc1ncccn1)c1cccs1 (stereo not given) | > 100 |
| O=C(NCc1ccccc1Cn1cncn1)C1CC1 | > 100 |
| CN(C)c1ccc(C(=O)N2CCN(CC(C)(C)O)CC2)nn1 | > 100 |
| COc1ccc(CNCc2ccc(N3CCCCC3)nc2)cc1OC | > 100 |
| COc1ccc(CNCc2ccnc(N3CCCCC3)c2)cc1OC | > 100 |
| Cc1ccc(C(=O)NCCNc2ncccc2C#N)c(=O)[nH]1 | > 100 |
| CCCN1CCC[C@]2(CCC(=O)N2Cc2ccncc2)[C@H]1CC | > 100 |
| Cc1nc(C)n(CC2CCCN2Cc2ncc(-c3ccccc3)o2)n1 (stereo not given) | > 100 |
| Cc1nc(C)c(C(=O)NCCNc2ncccc2C#N)s1 | > 100 |
| CC(Cn1cccn1)NCc1nc(-c2ccccc2Cl)no1 (stereo not given) | > 100 |

What follows are compounds tested against ClpP1P2 (Mycobacterium tuberculosis (strain ATCC 25618 / H37Rv), UniProt P9WPC3+P9WPC5) (assay: in vitro assay to detect presence of AMC directly proportional to the activity of ClpP1P2. GHDDI collaboration.).
Format: functional

| Structure (SMILES) | IC50 [µM] |
| --- | --- |
| Cc1nc(C)n(CC2CCCN2Cc2ncc(-c3ccccc3)o2)n1 (stereo not given) | > 100 |
